Assay results taken from the supplement of paper PMC4862054.

Tests used:
Test in all cases: normalised viability (% of control), CellTiter-Blue; higher = more viable cells (about 100 = DMSO control)
Details in all cases: incubation time: 72 h
[1] = tested on: CAL-51
Protocol: (§1)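 DSRT, CellTiter-Blue viability, 72 h incubation. Signal is normalised to DMSO and benzethonium chloride controls. Value is the normalised response at dose 3.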

[2] = tested on: MDA-MB-231
Protocol: as §1

[3] = tested on: CAL-120
Protocol: as §1

[4] = tested on: MDA-MB-436
Protocol: as §1

[5] = tested on: DU-4475
Protocol: as §1

[6] = tested on: HCC1937
Protocol: as §1

[7] = tested on: MDA-MB-453
Protocol: as §1

[8] = tested on: HCC1599
Protocol: as §1

[9] = tested on: MDA-MB-468
Protocol: as §1

[10] = tested on: CAL-85-1
Protocol: as §1

[11] = tested on: MFM-223
Protocol: as §1

[12] = tested on: HDQ-P1
Protocol: as §1

[13] = tested on: BT-549
Protocol: as §1

[14] = tested on: BT-474
Protocol: as §1

[15] = tested on: HCC1143
Protocol: as §1

[16] = tested on: SK-BR-3
Protocol: as §1

[17] = tested on: Hs578T
Protocol: as §1

[18] = tested on: CAL-148
Protocol: as §1

[19] = tested on: CAL-51; remark: listed apart in the source
Method in brief: (§2)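 Normalised viability is given for a single listed concentration of the series. In 384-well plates, breast cancer cell lines were incubated 72 h with compound, then read with CellTiter-Blue (2 h, 37 °C) at 560/590 nm. Per-plate scaling set vehicle to 100 and a positive kill control to 0, with Z'-factor quality control.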

[20] = tested on: CAL-120; remark: listed apart in the source
Method in brief: as §2

[21] = tested on: MDA-MB-436; remark: listed apart in the source
Method in brief: as §2

[22] = tested on: DU-4475; remark: listed apart in the source
Method in brief: as §2

[23] = tested on: HCC1937; remark: listed apart in the source
Method in brief: as §2

[24] = tested on: HCC1599; remark: listed apart in the source
Method in brief: as §2

[25] = tested on: MFM-223; remark: listed apart in the source
Method in brief: as §2

[26] = tested on: HDQ-P1; remark: listed apart in the source
Method in brief: as §2

[27] = tested on: BT-549; remark: listed apart in the source
Method in brief: as §2

[28] = tested on: HCC1143; remark: listed apart in the source
Method in brief: as §2

[29] = tested on: SK-BR-3; remark: listed apart in the source
Method in brief: as §2

[30] = tested on: CAL-148; remark: listed apart in the source
Method in brief: as §2

**Q.** For `CCOc1cc2ncc(C#N)c(Nc3ccc(OCc4ccccn4)c(Cl)c3)c2cc1NC(=O)/C=C/CN(C)C` [Neratinib], which normalised viability ([1]; 1 nM) is on record?
**A.** 97.1%

**Q.** What about the normalised viability ([2]; 10 nM) of the same compound?
**A.** 118%

**Q.** What about the normalised viability ([3]; 10 nM) of the same compound?
**A.** 84.9%

**Q.** And the normalised viability ([4]; 10 nM)?
**A.** 117%

**Q.** And the normalised viability ([5]; 1 nM)?
**A.** 97.7%

**Q.** And the normalised viability ([6]; 10 nM)?
**A.** 106%

**Q.** What about the normalised viability ([7]; 1 nM) of the same compound?
**A.** 100%

**Q.** And the normalised viability ([8]; 10 nM)?
**A.** 99.7%

**Q.** What about the normalised viability ([9]; 10 nM) of the same compound?
**A.** 107%

**Q.** And the normalised viability ([10]; 1 nM)?
**A.** 96.5%

**Q.** And the normalised viability ([11]; 10 nM)?
**A.** 87.9%

**Q.** What about the normalised viability ([12]; 1 nM) of the same compound?
**A.** 114%

**Q.** What about the normalised viability ([13]; 10 nM) of the same compound?
**A.** 101%

**Q.** What about the normalised viability ([14]; 10 nM) of the same compound?
**A.** 105%

**Q.** What about the normalised viability ([15]; 10 nM) of the same compound?
**A.** 89.1%

**Q.** What about the normalised viability ([16]; 10 nM) of the same compound?
**A.** 69.9%

**Q.** And the normalised viability ([17]; 10 nM)?
**A.** 84.1%

**Q.** What about the normalised viability ([18]; 1 nM) of the same compound?
**A.** 93.5%

**Q.** And the normalised viability ([19]; 0.3 nM)?
**A.** 92%

**Q.** What about the normalised viability ([19]; 3 nM) of the same compound?
**A.** 90.5%

**Q.** And the normalised viability ([19]; 10 nM)?
**A.** 93%

**Q.** What about the normalised viability ([20]; 1 nM) of the same compound?
**A.** 95.7%

**Q.** And the normalised viability ([20]; 100 nM)?
**A.** 76%

**Q.** What about the normalised viability ([20]; 1000 nM) of the same compound?
**A.** 82.7%

**Q.** And the normalised viability ([21]; 1 nM)?
**A.** 104%

**Q.** What about the normalised viability ([21]; 100 nM) of the same compound?
**A.** 108%

**Q.** And the normalised viability ([21]; 1000 nM)?
**A.** 110%

**Q.** What about the normalised viability ([22]; 0.3 nM) of the same compound?
**A.** 103%

**Q.** And the normalised viability ([22]; 3 nM)?
**A.** 95.4%

**Q.** What about the normalised viability ([22]; 10 nM) of the same compound?
**A.** 101%

**Q.** And the normalised viability ([23]; 1 nM)?
**A.** 80.3%

**Q.** What about the normalised viability ([23]; 100 nM) of the same compound?
**A.** 99.5%

**Q.** And the normalised viability ([23]; 1000 nM)?
**A.** 96.3%

**Q.** And the normalised viability ([24]; 1 nM)?
**A.** 108%

**Q.** And the normalised viability ([24]; 100 nM)?
**A.** 106%

**Q.** And the normalised viability ([24]; 1000 nM)?
**A.** 90.1%

**Q.** And the normalised viability ([25]; 1 nM)?
**A.** 99.2%

**Q.** And the normalised viability ([25]; 100 nM)?
**A.** 87.7%

**Q.** And the normalised viability ([25]; 1000 nM)?
**A.** 91.6%

**Q.** What about the normalised viability ([26]; 0.3 nM) of the same compound?
**A.** 123%

**Q.** What about the normalised viability ([26]; 3 nM) of the same compound?
**A.** 115%

**Q.** What about the normalised viability ([26]; 10 nM) of the same compound?
**A.** 106%

**Q.** What about the normalised viability ([27]; 1 nM) of the same compound?
**A.** 93.7%

**Q.** What about the normalised viability ([27]; 100 nM) of the same compound?
**A.** 82%

**Q.** And the normalised viability ([27]; 1000 nM)?
**A.** 93.8%

**Q.** And the normalised viability ([28]; 1 nM)?
**A.** 97.1%

**Q.** And the normalised viability ([28]; 100 nM)?
**A.** 91.9%

**Q.** And the normalised viability ([28]; 1000 nM)?
**A.** 84.5%

**Q.** What about the normalised viability ([29]; 1 nM) of the same compound?
**A.** 107%

**Q.** And the normalised viability ([29]; 100 nM)?
**A.** 95.8%

**Q.** And the normalised viability ([29]; 1000 nM)?
**A.** 114%

**Q.** What about the normalised viability ([30]; 0.3 nM) of the same compound?
**A.** 86.6%

**Q.** And the normalised viability ([30]; 3 nM)?
**A.** 78.6%

**Q.** What about the normalised viability ([30]; 10 nM) of the same compound?
**A.** 93.9%

**Q.** `COc1ccc(C2=N[C@@H](c3ccc(Cl)cc3)[C@@H](c3ccc(Cl)cc3)N2C(=O)N2CCNC(=O)C2)c(OC(C)C)c1` [Nutlin-3] was tested. Which normalised viability ([1]; 10 nM) did it give?
**A.** 94.3%

**Q.** And the normalised viability ([2]; 100 nM)?
**A.** 88.3%

**Q.** What about the normalised viability ([3]; 100 nM) of the same compound?
**A.** 84.8%

**Q.** And the normalised viability ([4]; 100 nM)?
**A.** 97.9%

**Q.** And the normalised viability ([5]; 10 nM)?
**A.** 95.4%

**Q.** What about the normalised viability ([6]; 100 nM) of the same compound?
**A.** 106%

**Q.** And the normalised viability ([7]; 10 nM)?
**A.** 98.7%

**Q.** What about the normalised viability ([8]; 100 nM) of the same compound?
**A.** 118%

**Q.** What about the normalised viability ([9]; 100 nM) of the same compound?
**A.** 95.8%

**Q.** And the normalised viability ([10]; 10 nM)?
**A.** 99.1%

**Q.** And the normalised viability ([11]; 100 nM)?
**A.** 83.2%

**Q.** And the normalised viability ([12]; 10 nM)?
**A.** 113%

**Q.** What about the normalised viability ([13]; 100 nM) of the same compound?
**A.** 105%

**Q.** And the normalised viability ([14]; 100 nM)?
**A.** 109%

**Q.** And the normalised viability ([15]; 100 nM)?
**A.** 84%

**Q.** And the normalised viability ([16]; 100 nM)?
**A.** 72.8%

**Q.** And the normalised viability ([17]; 100 nM)?
**A.** 101%

**Q.** What about the normalised viability ([18]; 10 nM) of the same compound?
**A.** 95.6%

**Q.** And the normalised viability ([19]; 3 nM)?
**A.** 101%

**Q.** What about the normalised viability ([19]; 30 nM) of the same compound?
**A.** 98.6%

**Q.** And the normalised viability ([19]; 100 nM)?
**A.** 97.5%

**Q.** What about the normalised viability ([20]; 10 nM) of the same compound?
**A.** 82.8%

**Q.** And the normalised viability ([20]; 1000 nM)?
**A.** 85.2%

**Q.** What about the normalised viability ([20]; 10000 nM) of the same compound?
**A.** 96.6%

**Q.** What about the normalised viability ([21]; 10 nM) of the same compound?
**A.** 108%

**Q.** And the normalised viability ([21]; 1000 nM)?
**A.** 82.3%

**Q.** And the normalised viability ([21]; 10000 nM)?
**A.** 110%

**Q.** What about the normalised viability ([22]; 3 nM) of the same compound?
**A.** 85.7%

**Q.** And the normalised viability ([22]; 30 nM)?
**A.** 90.3%

**Q.** What about the normalised viability ([22]; 100 nM) of the same compound?
**A.** 87.4%

**Q.** What about the normalised viability ([23]; 10 nM) of the same compound?
**A.** 81.3%

**Q.** And the normalised viability ([23]; 1000 nM)?
**A.** 98.7%

**Q.** And the normalised viability ([23]; 10000 nM)?
**A.** 113%

**Q.** And the normalised viability ([24]; 10 nM)?
**A.** 96.1%

**Q.** And the normalised viability ([24]; 1000 nM)?
**A.** 104%

**Q.** What about the normalised viability ([24]; 10000 nM) of the same compound?
**A.** 97.4%

**Q.** And the normalised viability ([25]; 10 nM)?
**A.** 87.5%

**Q.** What about the normalised viability ([25]; 1000 nM) of the same compound?
**A.** 83.2%

**Q.** What about the normalised viability ([25]; 10000 nM) of the same compound?
**A.** 81.6%

**Q.** And the normalised viability ([26]; 3 nM)?
**A.** 107%

**Q.** And the normalised viability ([26]; 30 nM)?
**A.** 112%

**Q.** And the normalised viability ([26]; 100 nM)?
**A.** 107%

**Q.** And the normalised viability ([27]; 10 nM)?
**A.** 91.3%

**Q.** And the normalised viability ([27]; 1000 nM)?
**A.** 98.4%

**Q.** And the normalised viability ([27]; 10000 nM)?
**A.** 103%

**Q.** And the normalised viability ([28]; 10 nM)?
**A.** 77.6%

**Q.** What about the normalised viability ([28]; 1000 nM) of the same compound?
**A.** 82.8%

**Q.** What about the normalised viability ([28]; 10000 nM) of the same compound?
**A.** 82.9%

**Q.** What about the normalised viability ([29]; 10 nM) of the same compound?
**A.** 103%

**Q.** What about the normalised viability ([29]; 1000 nM) of the same compound?
**A.** 98.1%

**Q.** What about the normalised viability ([29]; 10000 nM) of the same compound?
**A.** 101%

**Q.** What about the normalised viability ([30]; 3 nM) of the same compound?
**A.** 86%

**Q.** And the normalised viability ([30]; 30 nM)?
**A.** 89.8%

**Q.** And the normalised viability ([30]; 100 nM)?
**A.** 95.6%
